Source: US6015820A, “4-Aryl-thio-pyridin-2(1H)-ones, medicines containing them and their uses in the treatment of illnesses linked to HIV” (priority 1995, dated 2000)
Like-named read-outs stand apart in the source and are kept apart here.

Assays:
IT of recombinant HIV-1 = target: T1, IT of recombinant HIV-1 (Human immunodeficiency virus type 1 group M subtype B, UniProt P03369); assay: inhibition of the inverse transcriptase of recombinant HIV-1; type: biochemical
T1 construct: purify the IT enzyme of the recombinant HIV-1; made in house; host or cells: yeast cells transformed with the pAB 24/IT-4 vector
Description: Yeast cells transformed with the pAB 24/IT-4 vector were used to purify the IT enzyme of the recombinant HIV-1 as described by Sallafranque-Andreola et al. (1989 Eur. J. Biochem. 184, 364-374).
Incubation was carried out at 37° C. for 10 minutes in the presence of various matrix-primers.
a) Poly C-oligo dG: the reaction mixture contained a final volume of 0.05 ml, Tris-HCl 50 mM pH 8.0, MgCl2 5 mM, dithiothreitol 4 mM, 0.48 A260 /ml of poly C-oligo dG (5:1), 1.0 μCi of [^3 H]dGTP (28 Ci/mmole), dGTP 2 μM, KCl 80 mM, 1 μg of bovine serum albumin and IT 20-50 nM.
b) Poly A-oligo dT: the same conditions as in a), except that 0.48 A260 /ml of poly A-oligo dT (5:1), 0.5 μCi of [^3 H]dTTP (46 Ci/mmole), dTTP 20 μM were used.
The reactions were stopped by adding in the cold 1 ml of 10% trichloroacetic acid plus sodium pyrophosphate 0.1 M. The precipitates were filtered through nitrocellulose membranes, washed with 2% trichloroacetic acid, dried and counted in a PPO/POPOP/toluene scintillation mixture.
All the compounds were dissolved in dimethyl#sulphoxide (DMSO). The test samples were prepared in the presence of the same final concentration of DMSO. IC50 is the concentration required to inhibit the activity of the IT of the recombinant HIV-1 by 50%.

HIV-1 LAI = assay: anti-HIV-1 activity: replication of HIV-1 LAI on CEM-SS cells; type: cell-based; settings: Table 2, HIV-1 LAI, CEM-SS cells; for IC50: Human immunodeficiency virus 1, 120 h, 5 days, read-out: IC50, anti-HIV-1 activity
Description: (§1) The CEM-SS and the HIV-1 resistant to Nevirapine (N119) carrying a point mutation at codon 181 of the IT, were supplied respectively by P. NARA and D. RICHMAN through the intermediary of the AIDS Research and Reference Reagent Program, Division of AIDS, NIAID, NIH (USA) (Catalogue references : No. 776 and No. 1392).
(§2) The virus production was measured by quantifying the activity of the inverse transcriptase associated with viral particles released into the culture supernatant. In short, cells were infected with 100 TCID50 for 30 minutes; after adsorption of the virus, unbound particles were removed by two washings and the cells were cultivated in the presence of different concentrations of the compounds tested for 5 days before determining the viral production. The concentration inhibiting 50% of the viral multiplication (IC50) came from the computer plot of the median effect of the dose effect results (Chou et al. Elsevier Science Publishers, Cambridge U.K. (1985), 19-28).

[1] = cytotoxicity on non-infected cells (MTT test); type: cell-based; settings: human; Table 2; non-infected CEM-SS cells, MTT, 5 days
Description: (§3) In parallel experiments, the cytotoxicity of the molecules was measured on non-infected cells, after an incubation of 5 days in the presence of these molecules, by using a […] titration (MTT test) based on the ability of the mitochondrial dehydrogenases of the living cells to reduce 3-(4,5-dimethylthiazol-2-yl)-2,5-diphenyltetrazolium bromide in formazan (Mosmann et al. J. Immunol. Methods ([…]), 65, 55-63). The concentration cytotoxic at 50% (CC50) is the concentration at which the DO540 has been reduced to half and is calculated by using the program mentioned above.

CEM-SS cells = assay: cytotoxicity on non-infected cells (MTT test); type: cell-based; settings: MTT, 5 days
Description: as §3

[2] = test system: HIV-1 resistant to Nevirapine (N119); assay: microbe, parasite or virus in culture; type: cell-based; settings: for IC50: Human immunodeficiency virus 1, CEM-SS, read-out: IC50, strain resistant to Nevirapine; for SI (selectivity index): Table 3, strain resistant to Nevirapine
Description: as §1, with “The effects of the compounds were evaluated on the replication of HIV-1 (see Table 2) on CEM-SS cells (cell lines of the lymphocytic lineage) strongly infected with HIV-1 LAI as described by Moog et al. (Antiviral Research (1994), 24, 275-288). The” for “The”
as §2

isolated virion HIV-1LAI = assay: infectivity of the isolated virion after treatment with inhibitors (HT4LacZ cells); type: cell-based
Description: H9 cells chronically infected with HIV-1LAI (10^8 /ml) were cocultivated with MT4 cells (10^8 /ml) for 48 hours in an RMPI medium supplemented by 10% of calf foetal serum (CFS). The cells were then removed by centrifugation and then the supernatant liquid was filtered (0.45 μm) to remove residual cells and cell debris.
After having been incubated with the various inhibitors, the viral supernatants (200 μl) were deposited in the filtering part of a VectaSpin tube (WHATMAN) fitted with an ANAPORE membrane of porosity 0.02 μm. For 10 minutes they were subjected to centrifugation, the acceleration of which reached 6000 g at the filtering membrane. The viral residuums thereby obtained (10-15 μl ) were washed 3 times under the same conditions with 500 μl of RPMI then restored to their initial volumes with RPMI containing 10% of CFS.
The HT4LacZ-1 cells were kept in a DMEM medium (glucose 4.5 g/l) supplemented with 10% of calf foetal serum in the presence of Gentamycin (50 mg/l). These cells stemmed from Hela cells in which had been cloned, on the one hand the gene coding for the human CD4 so as to render them susceptible to infection by the HIV (Chesebro and Wehrly, 1988, J. Virol., 62, 3779-3788), and on the other hand the gene for β-Galactosidase which, placed under the dependent of the LTR of the HIV-1 served as a marker for the viral infection (Rocancourt et al. (1990) J. Virol. 1990 64-6, 2660-2688). When the virus infects such cells after its integration into the cellular genome, the production of the regulatory protein TAT activates the LTR of the HIV. The result is an activation of the gene of β-Galactosidase which leads to its production in the intracellular medium and more particularly in the nucleus. It is this protein that serves as a marker of the infection.
The evening of day 0, the HT4LacZ-1 cells were diluted at the rate of 75000 cells per ml of medium. 100 μl of this suspension was then distributed over a flat bottomed plate with 96 wells and was cultivated overnight at 37° C. (5% of CO2).
The morning of day 1, the supernatant liquid was removed by aspiration. Each well was then complemented with 200 μl of the viral supernatant dilutions to be tested. Each dilution was made in a DMEM medium (glucose 4.5 g/l) supplemented with 10% of CFS. The plates were then placed in an environment at 37° C. in the presence of 5% of CO2.
After 48 hours of culture, the supernatant liquid was aspirated, then each well was washed 3 times in PBS before being complemented with 200 μl of developing buffer (Tris-HCl 50 mM pH=8.5, ONPG 5 mg/ml β-mercapto-ethanol 7 μl/ml Triton×100 0.05%). After 4 hours of incubation at 37° C., the optical density of each well was measured.
The concentration of each of the inhibitors of the IT of the HIV-1 was adjusted to 50 mM in DMSO. The later dilutions were carried out on RPMI 1640. 2 μl of suitable dilutions of each of these inhibitors were added to 198 μl of a freshly unfrozen viral suspension. After 3 hours of incubation at ambient temperature, these suspensions were filtered on 0.02 μ VecraSpin tubes, then washed 3 times with 500 μl of RPMI 1640. The viral residuums were then adjusted to 200 μL with the culture medium (RPMI-10% CFS), then tested with regard to their infectivity on HT4LacZ cells.

Row | SMILES | IC50 (IT of recombinant HIV-1) [µM] | IC50 (HIV-1 LAI) [µM] | SI (selectivity index) (HIV-1 LAI) | CC50 at 120 h [1] [µM] | CC50 (CEM-SS cells; Table 3, non-infected cells) [µM] | IC50 [2] [µM] | SI (selectivity index) [2] | CC50 (CEM-SS cells; Table 2, non-infected CEM-SS cells) [µM] | IC50 (IT of recombinant HIV-1; read-out: IC50, inhibition of the inverse transcriptase, Table 5, IT of recombinant HIV-1) [µM] | activity at 1 µM (isolated virion HIV-1LAI; Human immunodeficiency virus 1, 1 μM inhibitor, 3 h, 100 TCID50, compared with viral supernatant subjected to same treatments, mean of 1 to 4 experiments, read-out: Activity of the isolated virions after treatment) [%] | activity at 10 µM (isolated virion HIV-1LAI; Human immunodeficiency virus 1, 10 μM inhibitor, 3 h, 100 TCID50, compared with viral supernatant subjected to same treatments, mean of 1 to 4 experiments, read-out: Activity of the isolated virions after treatment) [%] | activity on the isolated virion (in words) (isolated virion HIV-1LAI; isolated virion)
1 | Cc1c(Sc2ccccc2)n(COCc2ccccc2)c(=O)[nH]c1=O [BPT, 1-benzyloxymethyl-6-(phenylthio)thymine, reference compound] | 0.4 | – | – | – | – | – | – | – | – | – | – | –
2 | Cc1cc(C)cc(Sc2c(C)cnc(O)c2[N+](=O)[O-])c1 [Compound 7a, 5-methyl-3-nitro-4-(3', 5'-dimethylphenyl)thiopyridin-2(1H)-one] | > 10 | 0.12 | > 83 | > 10 | > 10 | > 10 | – | – | – | – | – | –
3 | CCc1cnc(O)c([N+](=O)[O-])c1Sc1cc(C)cc(C)c1 [Compound 7b, 5-ethyl-3-nitro-4-(3', 5'-dimethylphenyl)thio-pyridin-2(1H)-one] | – | – | > 111 | > 10 | > 10 | 6.7 | > 1 | – | – | – | – | –
4 | Cc1cccc(Sc2c(C)c[nH]c(=O)c2[N+](=O)[O-])c1 [Compound 7e, 5-methyl-3-nitro-4-(3'-methylphenyl)thio-pyridin-2(1H)-one] | > 10 | – | – | > 10 | – | – | – | – | – | – | – | –
5 | Cc1cc(C)cc(Sc2c([N+](=O)[O-])c(O)nc3ccccc23)c1 [Compound 7f, 3-nitro-4-(3', 5'-dimethylphenyl)-thiopuinoline-2(1H)-one] | – | 3.8 | > 26 | – | > 10 | > 10 | – | > 100 | – | – | – | –
6 | Cc1cc(C)cc(Sc2c(C)cnc(O)c2N)c1 [Compound 8a, 3-amino-5-methyl-4-(3', 5'-dimethylphenyl)-thio-pyridin-2(1H)-one] | 0.1 | 0.01 | > 1000 | > 10 | > 10 | > 10 | – | – | – | – | – | –
7 | CCc1cnc(O)c(N)c1Sc1cc(C)cc(C)c1 [Compound 8b, 3-amino-5-ethyl-4-(3', 5'-dimethylphenyl)thio-pyridin-2(1H)-one] | – | 0.01 | > 1000 | > 10 | > 10 | 6.7 | > 1 | – | – | – | – | –
8 | Cc1cccc(Sc2c(C)c[nH]c(=O)c2N)c1 [Compound 8e] | – | 1.4 | > 55 | 78 | – | 41.5 | > 1 | – | > 4 | – | – | –
9 | Cc1cc(C)cc(Sc2c(N)c(O)nc3ccccc23)c1 [Compound 8f, 3-amino-4-(3', 5'-dimethylphenyl)-thio-quinoline-2(1H)-one] | – | 0.25 | > 36 | > 9 | 8.2 | 6.6 | > 1.5 | – | – | – | – | –
10 | CCC(=O)Nc1c(Sc2cc(C)cc(C)c2)c(C)c[nH]c1=O [Compound 11c, 5-methyl-3-propionamido-4-(3', 5'-dimethylphenyl)thio-pyridin-2(1H)-one] | > 4 | 41.4 | > 2 | > 100 | – | – | – | – | – | – | – | –
11 | CCc1c(C)nc(O)c(NC(C)=O)c1Sc1cc(C)cc(C)c1 [Compound 11g, 3-acetamido-5-ethyl-6-methyl-4-(3', 5'-dimethylphenyl)thio-pyridin-2(1H)-one] | – | 0.05 | > 1600 | > 80 | > 100 | 4.3 | > 23 | – | – | – | – | –
12 | CCc1c(Sc2cc(C)cc(C)c2)cc(=O)[nH]c1C [Compound 16, 5-ethyl-6-methyl-4-(3', 5'-dimethylphenyl)thio-pyridin-2(1H)-one] | 0.4 | 0.5 | > 20 | > 10 | – | – | – | – | – | – | – | –
13 | Cc1c(Sc2ccccc2)n(COCCO)c(=O)[nH]c1=O [HEPT, 1-[(2-hydroxyethoxy)methyl]-6-(phenylthio)thymine] | > 6 | – | – | – | – | – | – | – | – | 121 | 141 | totally inactive
